Source: US5607926A, “Cephalosporin antibiotics” (Microcide Pharmaceuticals, Inc., priority 1995, dated 1997)
Converted amounts (≈) assume the structure as drawn. Structures can show the parent of a compound that is named as a salt. Where two headings read alike, the source gives them in different places.

Key:
[1] = system: S. haemolyticus (Meth^R); test: In vitro antibacterial evaluation, MIC by agar dilution, S. haemolyticus; type: cell-based; conditions: Staphylococcus haemolyticus, read-out: MIC
Summary of the method: (§1)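 Log-phase isolates were spot-inoculated at about 10^4 cfu per spot onto Mueller-Hinton agar plates containing twofold compound dilutions (highest working concentration 128 μg/mL, lowest ≤0.25 μg/mL, duplicates). After 16-20 h at 35-36 °C, the lowest growth-inhibiting level was taken as MIC, per NCCLS agar dilution.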

[2] = system: E. coli ATCC 25922; test: In vitro antibacterial evaluation, MIC by agar dilution, E. coli ATCC 25922; type: cell-based; conditions: Escherichia coli, ATCC25922, read-out: MIC
Summary of the method: as §1

[3] = system: S. aureus ATCC 25923; test: In vitro antibacterial evaluation, MIC by agar dilution, S. aureus ATCC 25923; type: cell-based; conditions: Staphylococcus aureus, ATCC25923
Summary of the method: as §1

[4] = system: P. aeruginosa ATCC 27853; test: In vitro antibacterial evaluation, MIC by agar dilution, P. aeruginosa ATCC 27853; type: cell-based; conditions: Pseudomonas aeruginosa, ATCC27853, read-out: MIC
Summary of the method: as §1

[5] = system: E. faecium ATCC 35667; test: In vitro antibacterial evaluation, MIC by agar dilution, E. faecium ATCC 35667; type: cell-based; conditions: Enterococcus faecium, ATCC35667, read-out: MIC
Summary of the method: as §1

[6] = system: E. faecalis ATCC 29212; test: In vitro antibacterial evaluation, MIC by agar dilution, E. faecalis ATCC 29212; type: cell-based; conditions: Enterococcus faecalis, ATCC29212; E. faecalis ATCC 29212; read-out: MIC
Summary of the method: as §1

[7] = system: S. epidermidis ATCC 31432; test: In vitro antibacterial evaluation, MIC by agar dilution, S. epidermidis ATCC 31432; type: cell-based; conditions: Staphylococcus epidermidis, ATCC31432
Summary of the method: as §1

[8] = system: S. aureus 76 (Meth^R)(lac^+); test: In vitro antibacterial evaluation, MIC by agar dilution, S. aureus 76; type: cell-based; conditions: Staphylococcus aureus, read-out: MIC
Summary of the method: as §1

[9] = system: S. aureus ATCC 29213; test: In vitro antibacterial evaluation, MIC by agar dilution, S. aureus ATCC 29213; type: cell-based; conditions: Staphylococcus aureus, ATCC29213
Summary of the method: as §1

[10] = system: S. aureus Col8A (Meth^S)(lac^-); test: In vitro antibacterial evaluation, MIC by agar dilution, S. aureus Col8A; type: cell-based; conditions: Staphylococcus aureus
Summary of the method: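 Log-phase isolates were spot-inoculated at about 10^4 cfu onto Mueller-Hinton agar carrying duplicate two-fold compound levels, 128 μg/mL to ≤0.25 μg/mL, following NCCLS (1991). Plates were read after 16-20 h at 35°-36° C. The lowest growth-inhibiting concentration gave the MIC (μg/ml).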

[11] = system: methicillinsusceptible S. aureus strain ATCC 13709; test: In vivo antibacterial evaluation, murine model for lethal bacteremic peritonitis; set-up: species or system S. aureus in female Swiss-Webster mice; conditions: Staphylococcus aureus, ATCC13709, sc, 72 h, two equal SC doses at challenge and 2 hours later, mice, probit, read-out: ED50
Description: Groups of 5 female Swiss-Webster mice (Simonsen, Gilroy, Calif.) each are challenged by the intraperitoneal (IP) route with ten-fold increments of a bacterial inoculum. This permits calculation of the mean lethal dose (LD50) and the LD100. For preliminary evaluation of a new antibiotic, mice are challenged IP with an LD100 titer of bacteria. In two equal doses administered at the time of bacterial challenge and 2 hours later, groups of 10 mice each are treated subcutaneously with two-fold increments of the test drug and an antibiotic of known efficacy in mice and humans (i.e., positive control). Mice are observed for 72 h. Those alive at 72 h are considered long term survivors. The total drug dose in mg/kg that protects 50% of mice in a group from death is termed the mean protective dose (PD50). PD50 s are similarly determined for several pathogens. The quantitative endpoints for the new drug are then compared with those obtained with reference antibiotics.
Six ten-fold dilutions of inoculum suspended in 0.5 mL of sterilized 7% hog gastric mucin (Sigma) are injected IP in groups of 5 mice each. A control group of 5 mice receive mucin alone. Mice are observed for 72 h. Those alive at 72 h are considered long term survivors. The mean lethal dose (LD50) and 100% lethal dose (LD100) are determined by the probit test.
For antibiotic efficacy studies, mice are challenged IP with bacterial titers that will afford an LD100 for the test strain. In two equal doses administered at the time of bacterial challenge and 2 hours later, groups of 10 mice each are treated by the subcutaneous route (SC) with twofold increments of the test antibiotic; another group is treated similarly with a reference antibiotic of known efficacy in animals and man. Drug doses can range from 0.01 to 512 mg/kg. If the drug is poorly soluble, Tween 20 or propylene glycol will be employed to solubilize the drug. Animals are observed for 72 h. The 50% protective dose (PD50) is calculated in mg/kg by the probit method. The PD50 is the same as the 50% effective dose (ED50) and the 50% curative dose (CD50). Samples of blood from the hearts of all animals that die and from half the mice that survive are cultured on brain-heart infusion agar. Animals that received a protective dosage of the test drug will be alive at 72 h, although they may appear moderately ill to very ill during the observation period. […] Most of these mice will die within 6 to 48 h. Those alive at 72 h will be considered long term survivors.
data reported for challenge with methicillinsusceptible S. aureus strain

[12] = S. aureus ATCC 29213, read-out: MIC

SMILES	MIC [1]	MIC [2]	MIC [3]	MIC [4]	MIC [5]	MIC [6]	MIC [7]	MIC [8]	MIC [9]	MIC [10]	MIC ([3]; S. aureus ATCC 25923, read-out: MIC)	MIC ([7]; S. epidermidis ATCC 31432, read-out: MIC)	MIC [9, 12]	ED50 [11]
C[n+]1ccc(SCc2ccccc2SC2=C(C(=O)[O-])N3C(=O)[C@@H](NC(=O)Cc4ccccc4)[C@H]3SC2)cc1 [Cmpd 73, (7R)-7-[(Phenylacetyl)amino]-3-(2-(N-methylpyridin-4-ium)thiomethyl)phenylthio)-3-cephem-4-carboxylate, inner salt]	32 µg/mL	> 32 µg/mL	< 0.25 µg/mL	> 32 µg/mL	1 µg/mL	0.5 µg/mL	< 0.25 µg/mL	16 µg/mL	< 0.25 µg/mL	< 0.25 µg/mL				
O=C(Cc1ccccc1)N[C@@H]1C(=O)N2C(C(=O)O)=C(Sc3ccccc3CSC3=NCCN3)CS[C@H]12 [Cmpd 72]	32 µg/mL (≈ 59.2 µM)	> 32 µg/mL	< 0.25 µg/mL	> 32 µg/mL	2 µg/mL (≈ 3.7 µM)	1 µg/mL (≈ 1.85 µM)	< 0.25 µg/mL	16 µg/mL (≈ 29.6 µM)	< 0.25 µg/mL	< 0.25 µg/mL				
CCN=C(NCC)SCc1ccccc1SC1=C(C(=O)O)N2C(=O)[C@@H](NC(=O)Cc3ccccc3)[C@H]2SC1 [Cmpd 74, (7R)-7-[(Phenylacetyl)amino]-3-(2-N,N'-diethylisothiouroniummethylphenylthio)-3-cephem-4-carboxylate, inner salt]	> 32 µg/mL	> 32 µg/mL	< 0.25 µg/mL	> 32 µg/mL	2 µg/mL	1 µg/mL	< 0.25 µg/mL	32 µg/mL	< 0.25 µg/mL	< 0.25 µg/mL				
CNC(=N)SCc1ccccc1SC1=C(C(=O)O)N2C(=O)[C@@H](NC(=O)Cc3ccccc3)[C@H]2SC1 [Cmpd 76, (7R)-7-[(Phenylacetyl)amino]-3-(2-N-methylisothiouroniummethylphenylthio)-3-cephem-4-carboxylate, inner salt]	32 µg/mL	> 32 µg/mL	< 0.25 µg/mL	> 32 µg/mL	2 µg/mL	1 µg/mL	< 0.25 µg/mL	8 µg/mL	< 0.25 µg/mL	< 0.25 µg/mL				
N#CCC(=O)N[C@@H]1C(=O)N2C(C(=O)O)=C(Sc3ccccc3C#N)CS[C@H]12 [Cmpd 52, (7R)-7-[(Cyanoacetyl)amino]-3-(2-cyanophenylthio)-3-cephem-4-carboxylic acid]	16 µg/mL (≈ 40 µM)	> 32 µg/mL		> 32 µg/mL	2 µg/mL (≈ 4.99 µM)	4 µg/mL (≈ 9.99 µM)		16 µg/mL (≈ 40 µM)		0.5 µg/mL (≈ 1.25 µM)	< 0.25 µg/mL	< 0.25 µg/mL	0.5 µg/mL (≈ 1.25 µM)	
CN(C)C(SCc1ccccc1SC1=C(C(=O)[O-])N2C(=O)[C@@H](NC(=O)Cc3ccccc3)[C@H]2SC1)=[N+](C)C [Cmpd 69, (7R)-7-[(Phenylacetyl)amino]-3-(2-tetramethylisothiouroniummethylphenylthio)-3-cephem-4-carboxylate, inner salt]	32 µg/mL	> 32 µg/mL	< 0.25 µg/mL	> 32 µg/mL	2 µg/mL	2 µg/mL	< 0.25 µg/mL	16 µg/mL	< 0.25 µg/mL	< 0.25 µg/mL				
Cc1nnc(SCc2ccccc2SC2=C(C(=O)O)N3C(=O)[C@@H](NC(=O)Cc4ccccc4)[C@H]3SC2)s1 [Cmpd 77]	> 32 µg/mL	> 32 µg/mL	< 0.25 µg/mL	> 32 µg/mL	2 µg/mL (≈ 3.5 µM)	1 µg/mL (≈ 1.75 µM)	< 0.25 µg/mL	32 µg/mL (≈ 56.1 µM)	< 0.25 µg/mL	< 0.25 µg/mL				
N#CCC(=O)N[C@@H]1C(=O)N2C(C(=O)O)=C(Sc3cccnc3-c3ccccc3)CS[C@H]12 [Cmpd 85, (7R)-7-[(Cyanoacetyl)amino]-3-(2-phenylpyridin-3-ylthio)-3-cephem-4-carboxylic acid]	16 µg/mL (≈ 35.4 µM)	> 32 µg/mL	< 0.25 µg/mL	> 32 µg/mL	2 µg/mL (≈ 4.42 µM)	4 µg/mL (≈ 8.84 µM)	< 0.25 µg/mL	16 µg/mL (≈ 35.4 µM)	< 0.25 µg/mL	< 0.25 µg/mL				
O=C(Cc1ccccc1)N[C@@H]1C(=O)N2C(C(=O)O)=C(Sc3ccccc3CSc3ncn[nH]3)CS[C@H]12 [Cmpd 67, (7R)-7-[(Phenylacetyl)amino]-3-(2-(1,2,4-triazol-5-ylthiomethyl)phenylthio)-3-cephem-4-carboxylic acid]	16 µg/mL (≈ 29.6 µM)	> 32 µg/mL	< 0.25 µg/mL	> 32 µg/mL	2 µg/mL (≈ 3.71 µM)	2 µg/mL (≈ 3.71 µM)	< 0.25 µg/mL	16 µg/mL (≈ 29.6 µM)	< 0.25 µg/mL	< 0.25 µg/mL				
Cn1nnnc1SCc1ccccc1SC1=C(C(=O)O)N2C(=O)[C@@H](NC(=O)Cc3ccccc3)[C@H]2SC1 [Cmpd 71]	> 32 µg/mL	> 32 µg/mL	< 0.25 µg/mL	> 32 µg/mL	2 µg/mL (≈ 3.61 µM)	1 µg/mL (≈ 1.8 µM)	< 0.25 µg/mL	> 32 µg/mL	< 0.25 µg/mL	< 0.25 µg/mL				
O=C(Cc1ccccc1)N[C@@H]1C(=O)N2C(C(=O)O)=C(Sc3ccccc3CSc3ccncc3)CS[C@H]12 [Cmpd 70]	32 µg/mL (≈ 58.2 µM)	> 32 µg/mL	< 0.25 µg/mL	> 32 µg/mL	2 µg/mL (≈ 3.64 µM)	0.5 µg/mL (≈ 0.91 µM)	< 0.25 µg/mL	16 µg/mL (≈ 29.1 µM)	< 0.25 µg/mL	< 0.25 µg/mL				
CSCC(=O)N[C@@H]1C(=O)N2C(C(=O)O)=C(Sc3ccccc3CSC(=N)N)CS[C@H]12 [Cmpd 127, (7R)-7-[(methylthioacetyl)amino]-3-(2-isothiouroniummethylphenylthio)-3-cephem-4-carboxylate, inner salt]		> 32 µg/mL		> 32 µg/mL	1 µg/mL	1 µg/mL		8 µg/mL		≤ 0.06 µg/mL			≤ 0.06 µg/mL	0.59 mg/kg
O=C(Cc1ccccc1)N[C@@H]1C(=O)N2C(C(=O)O)=C(Sc3ccc(CSc4ncn[nH]4)cc3)CS[C@H]12 [Cmpd 65, (7R)-7-[(Phenylacetyl)amino]-3-(4-(1,2,4-triazol-5-ylthiomethyl)phenylthio)-3-cephem-4-carboxylic acid]	32 µg/mL (≈ 59.3 µM)	> 32 µg/mL	< 0.25 µg/mL	> 32 µg/mL	2 µg/mL (≈ 3.71 µM)	1 µg/mL (≈ 1.85 µM)	< 0.25 µg/mL	32 µg/mL (≈ 59.3 µM)	< 0.25 µg/mL	< 0.25 µg/mL				
Nc1nc(-c2ccccc2)c(SC2=C(C(=O)O)N3C(=O)[C@@H](NC(=O)Cc4ccccc4)[C@H]3SC2)s1 [Cmpd 92, (7R)-7-[(Phenylacetyl)amino]-3-(2-amino-4-phenyl-thiazol-5-ylthio)-3-cephem-4-carboxylic acid]	8 µg/mL (≈ 15.2 µM)	> 32 µg/mL	< 0.25 µg/mL	> 32 µg/mL	16 µg/mL (≈ 30.5 µM)	16 µg/mL (≈ 30.5 µM)	< 0.25 µg/mL	16 µg/mL (≈ 30.5 µM)	< 0.25 µg/mL	< 0.25 µg/mL				
O=C(Cc1ccccc1)N[C@@H]1C(=O)N2C(C(=O)O)=C(Sc3ccccc3CSc3ncccn3)CS[C@H]12 [Cmpd 75]	> 32 µg/mL	> 32 µg/mL	< 0.25 µg/mL	> 32 µg/mL	2 µg/mL (≈ 3.63 µM)	1 µg/mL (≈ 1.82 µM)	< 0.25 µg/mL	32 µg/mL (≈ 58.1 µM)	< 0.25 µg/mL	< 0.25 µg/mL				
